Data as given in patent US7776902B2, “Nitrooxyderivatives of cyclooxygenase-2 inhibitors” (Nicox S.A., priority 2002, dated 2010).

Tests used:
[1] = Gastric tolerability after two weeks oral treatment in L-NAME hypertensive rats; format: in vivo; conditions: 10 mg/kg daily for two weeks, hypertension induced by L-NAME 400 mg/liter in drinking water
Protocol: (§1) The experiment was carried out according to the method described by M. N. Muscarà et al. Br. J. Pharmacol. 133, 1314, 2001, and employing groups of 10 rats weighing each 200-250 g.
(§2) The compounds, suspended in 1% carboxymethylcellulose, were administered orally for two weeks at a daily dose of 10 mg/kg body weight.
(§3) Hypertension was induced by addition of L-NAME (N-omega-nitro-L-arginine methylester) to the drinking water at a concentration of 400 mg/liter. At the end of the treatment, the blood pressure was determined by introduction of a cannula into femoral artery and measurement with polygraphic transducer, 16 hours after the last administration.

[2] = Blood pressure effect after two weeks oral treatment in L-NAME hypertensive rats; format: in vivo; conditions: 10 mg/kg daily for two weeks, L-NAME in drinking water, femoral artery cannula, 16 hours after the last administration
Protocol: as §1, §2, §3

| SMILES | gastric damage, share of the treated animals [1] [%] | increase of the blood pressure (average) [2] [mmHg] | gastric tolerability [1] | effect on blood pressure [2] |
| --- | --- | --- | --- | --- |
| Cc1ccc(-c2cc(C(F)(F)F)nn2-c2ccc(S(N)(=O)=O)cc2)cc1 [celecoxib, 4-[5-(4-methylphenyl)-3-(trifluoromethyl)-1H-pyrazol-1-yl]benzenesulfon-amide] | 80 | 15 | – | – |
| Cc1ccc(-c2cc(C(F)(F)F)nn2-c2ccc(S(=O)(=O)NC(=O)CCCO[N+](=O)[O-])cc2)cc1 [Example 4, N-[4-[5-(4-methylphenyl)-3-(trifluoromethyl)-1H-pyrazol-1-yl]phenylsulfonyl]-4-nitrooxy-butanamide] | – | – | well tolerated | no increase of the blood pressure |
